Source: patent publication US11241480B2, “Methods for modulation of dietary and microbial exposure with compositions comprising an EGFR ligand” (Washington University, priority 2017, dated 2022)

Key:
Type in all cases: in vivo, mice
CBir1 T cells = experiment: Adoptive transfer of CBir1/DP1 TCR transgenic T cells
Procedure: Isolation of cellular populations and flow cytometry: Small intestines or colons were harvested, rinsed with PBS, and Peyer's patches or colonic patches were removed. Epithelial cellular populations were released by incubating for 15 min three times in a 37° C. rotating incubator in HBSS media (BioWhittaker, Walkersville, Md.) containing 5 mM EDTA as previously described. Isolation of splenic, MLN and lamina propria (LP) cellular populations was performed as previously described. In some experiments, single cell suspensions of MLN were cultured in cell culture media for three days as previously described. The first wash of HBSS+EDTA was used to isolate goblet cells as below. SI and colonic LP-MNPs were identified as 7AAD^−, CD45^+, CD11c^+, MHCII^+for flow cytometric sorting. Goblet cells were identified as CD45^−, CD24^−CK18^+, UEA-I^+for flow cytometric sorting as previously described. For intracellular antigens and cytokines, cells were fixed and permeabilized overnight and stained per the manufacturers recommendations (eBioscience). Flow cytometry was performed with a FACScan cytometer (BD Biosciences, San Jose, Calif.) retrofitted with additional lasers. Data acquisition was performed using CellQuest (BD Biosciences) and Rainbow (Cytek,Fremont, Calif.) or FlowJo software (Tree Star, Ashland, OR). Data analysis was performed on a Macintosh computer running FlowJo software.
Treatments to alter GAPs: Acute induction or inhibition of GAPs was performed as previously described. Mice were given 500 μg/kg tyrphostin AG1478 i.p. to inhibit of EGFR activation, 10 mg/kg U0126 i.p. to inhibit MAPK/ERK (MEK1/MEK2) activation, 150 μg/kg carbamylcholine (acetycholine analogue) i.p., 100 mg/kg tropicamide (mAChR4 selective antagonist) i.p., 1 μg recombinant murine EGF (Shenandoah) in 20 μl PBS intracolonic, 10 μg LPS intraluminally, or 100 μl stomach contents from a DOL10 mice intraluminally, or 100 μl heat killed cecal contents from SPF housed adult mice intraluminally. Reagents from Sigma Aldrich, St. Louis, Mo. unless otherwise noted.
Adoptive T cell Transfer: 10^5 splenic CD4^+ T cells from CD45.1 CBir1 TCR transgenic mice, CD45.1+ DP1 TCR transgenic mice, or CD45.1+ OTII TCR transgenic mouse were enriched by magnetic particles (Stemcell Technology, #19752 Vancouver, British Columbia, Canada) and injected i.v. into mice. In some experiments cells were labeled with CFSE prior to injection, and MLNs of recipient mice were analyzed three days posts transfer. Mice were analyzed seven days posts transfer to evaluate the presence of the transferred population in the LP. In some experiments, in FIG. 34, FIG. 37, and FIG. 39, cells were transferred on DOL 16, and analyzed on DOL 30 or after 8 days of DSS treatment on DOL 38.

[1] = test system: colonic LP Tregs (FoxP3+); experiment: Colonic LP Treg/iTreg populations by flow cytometry after early-life manipulation
Procedure: EGFRi treatment: Mice were injected with 500 μg/kg tyrphostin AG1478 (an inhibitor of EGFR phosphorylation) in the neonatal, post-neonatal, or weaned phase on DOLs noted in the text or figure legends.
Isolation of cellular populations and flow cytometry: Sls or colons were harvested, rinsed with PBS, and Peyer's patches or colonic patches were removed. Epithelial cellular populations were released by incubating for 15 min three times in a 37° C. rotating incubator in HBSS media (BioWhittaker, Walkersville, Md.) containing 5 mM EDTA, and splenic and LP cellular populations were isolated as described. SI and colonic APCs were identified as 7AAD^−, CD45^+, CD11c^+, MHCII^+ for flow cytometric sorting. FoxP3 subpopulations were identified as 7AAD^−, CD45^+, CD3^+, CD4^+, FoxP3^+, and either RORγt^+ or Helios^+. For intracellular antigens and cytokines, cells were fixed, permeabilized overnight, and stained per the manufacturers recommendations (eBioscience). Flow cytometry was performed with a FACScan cytometer (BD Biosciences, San Jose, Calif.) retrofitted with additional lasers. Data acquisition was performed using CellQuest (BD Biosciences) and Rainbow (Cytek, Fremont, Calif.) or FlowJo software (Tree Star, Ashland, Oreg.). Data analysis was performed on a Macintosh computer running FlowJo software.

[2] = Serum cytokines and immunoglobulins by ELISA/multiplex after Ova rechallenge; conditions: dietary Ova DOL 0-30; EGFRi DOL 6 and 8 or DOL 24 and 26
Procedure: Measurement of cytokines, EGF, and immunoglobulins: Cytokines were measured using the MILLIPLEX MAP Mouse Cytokine/Chemokine Magnetic Bead Panel (see e.g., FIG. 16D; EMD Millipore) or using ELISAs for EGF (R&D systems), IL13 (eBioscience), Eotaxin (R&D systems), IgE (eBiosciences), and MCPT1 (eBioscience) per the manufacturers recommendations. An ELISA comprised of Ova (Sigma-Aldrich A5503) for capture, and monoclonal anti-IgE antibody conjugated to alkaline phosphatase (Southern Biotech 1110-04) for detection, was used to measure Ova specific IgE.

[3] = intracolonic EGF DOL10-21, transfer DOL16
[4] = EGFR inhibitors on DOL24 and 26 post-weaning

Compound | Foxp3 expression of transferred CBir1 T cells on DOL30 (CBir1 T cells; [3]) | expansion of transferred CBir1 T cells in colon LP on DOL30 (CBir1 T cells; [3]) | inflammatory cytokine expression (IL-17, TNFα, IFNγ) of CBir1 T cells on DOL30 (CBir1 T cells; intracolonic EGF DOL10-21, vs PBS treated control mice) | expansion of CBir1 cells in the colon draining MLN three days post transfer (CBir1 T cells; post-neonatal mice, intracolonic recombinant EGF (1 μg daily DOL10-21)) | colonic LP Treg population, pattern and timing ([1]; EGFRi in neonatal phase, DOL 6 and 8) | colonic LP Treg population, pattern and timing ([1]; EGFRi in post-neonatal phase, DOL 14 and 16) | colonic LP Treg population, pattern and timing ([1]; EGFRi on DOL 24 and 26 (beyond weaning)) | persistence of the diminished iTreg population ([1]; after manipulation of colonic GAPs (EGFRi neonatal or weaning phase)) | other immunoglobulins, Th1 and Th17 cytokines in serum [2] | serum Th2 mediators and IgE [2] | Foxp3 expression of transferred CBir1 T cells on DOL30 (CBir1 T cells; [4]) | inflammatory cytokine expression of CBir1 T cells on DOL30 (CBir1 T cells; [4]) | Foxp3 expression of CBir1 and DP1 T cells in colon LP seven days post transfer (CBir1 T cells; antigen encounter post-weaning, DOL28, under EGFR inhibition) | Foxp3 and inflammatory cytokine expression of transferred CBir1 T cells on DOL30 (CBir1 T cells; inhibition of EGFR on DOL14 and 16 (post-neonatal phase), vs controls) | expansion of transferred CBir1 T cells in colon LP on DOL30 (CBir1 T cells; inhibition of EGFR on DOL14 and 16 or on DOL24 and 26) | expansion and activation of transferred CBir1 or DP1 cells in the MLN (CBir1 T cells; post-weaning mice (DOL28), three days after transfer)
EGF: recombinant murine EGF (Shenandoah); EGFR ligand, given luminally or intracolonically | significantly less Foxp3 | significantly less expansion | significantly larger proportion of the remaining CBir1 T cell population expressed inflammatory cytokines | failed to expand |  |  |  |  |  |  |  |  |  |  |  | 
COc1cc2ncnc(Nc3cccc(Cl)c3)c2cc1OC [EGFRi, tyrphostin AG1478] |  |  |  |  | early peaks in colonic LP Tregs; these peaks rapidly decreased and were not maintained | resembled the endogenous Treg population of non-manipulated animals | rapidly lost the colonic Treg population | at least 8 months | did not have elevations in other immunoglobulins or prototypic Th1 or Th17 cytokines | markedly elevated serum levels of Th2 mediators, and global and antigen-specific IgE | significantly less Foxp3 | significantly greater proportion of the population expressed inflammatory cytokines | little Foxp3 expression | no significant difference in the expression of Foxp3+ or inflammatory cytokines | did not affect the expansion of transferred CBir1 T cells | allowed adoptively transferred CBir1 or DP1 cells to expand and become activated
